Experimental data taken from article PMC8072597, “Chromeno[3,4-b]xanthones as First-in-Class AChE and Aβ Aggregation Dual-Inhibitors” (International Journal of Molecular Sciences, 2021).
Where two headings read alike, the source gives them in different places.

What was measured:
[1] = biological target: AChE (Electrophorus electricus—eeAChE) (Electrophorus electricus, UniProt O42275); experiment: biochemical; format: biochemical
Description: The synthesized compounds were evaluated for their inhibitory activity against AChE (Electrophorus electricus—eeAChE), using an adaptation of Ellman’s method. […] Initially, we performed a screening assay for the synthesized compounds to determine their enzyme inhibition at 20 μΜ as a threshold maximum concentration. […]
The inhibitory activity of the synthesized compounds towards AChE was evaluated spectrophotometrically by a 96-well microplate modified Ellman’s method. The enzyme (AChE) from Electrophorus electricus (eeAChE) stock solution was prepared as 7.4 U/mL in phosphate buffer, at pH 7. The stock solutions for the target compounds (0.1 M) were prepared in DMSO. The assay solution consisted of 0.0005 M 5,5′-dithiobis(2-nitrobenzoic acid) (DTNB), 0.013 U/mL eeAChE, and 0.0025 M acetylthiocholine iodide ATC (substrate for AChE) in 0.1 M phosphate buffer, at pH 7. The reaction mixture was prepared with 100 μL of the enzyme (eeAChE) and 50 μL of the test compound (or DMSO/water, not exceeding 0.2% of DMSO in the wells; i.e., blank samples). After 5 min of the pre-incubation period at 37 °C, 50 μL of acetylthiocholine iodide ATC and 50 μL of 5,5′-dithiobis(2-nitrobenzoic acid) (DTNB) were added to each well, thus initiating the enzymatic reaction. […] All compounds were tested at a screening concentration of 20 μM. The enzyme inhibition was calculated using the […] formula, where S and B are the enzyme activities with and without the test compound, respectively. […] All the reactions were performed in triplicate.

[2] = biological target: T1, HFIP-treated Aβ1-42 peptides (Homo sapiens, UniProt P05067); experiment: Aβ aggregation inhibition, thioflavin T (ThT)-based fluorimetric assay; format: biochemical; conditions: 20 μM compound; for inhibition at 20 µM: read-out: Aβ1-42 Aggregation (% Inhib. at 20 μM)
T1 construct: (HFIP)-treated Aβ1-42 peptides
T1 sequence (P05067 672-713): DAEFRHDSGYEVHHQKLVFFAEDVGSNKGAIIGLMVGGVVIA
Excerpt: The formation of amyloid aggregates is crucial for the path mechanism of AD. Therefore, we also decided to check the inhibitory activity of the synthesized compounds against the Aβ aggregation. To do so, we conducted a thioflavin T (ThT)-based fluorimetric assay to evaluate their ability to inhibit β-amyloid aggregation in vitro, using 1,1,1,3,3,3,-hexafluoro-2-propanol (HFIP)-treated Aβ1-42 peptides. This assay is based on the interaction between benzothiazole dye (ThT) and cross β-sheet quaternary structure of the amyloid protein. The intensity of fluorescence is weak when the dye is free and increases when the dye binds to β-sheet structures. Cumulative evidence has been shown that aromatic/hydrophobic areas and hydrogen bonding components (such as hydroxy or methoxy groups) along flat extended structures in small-molecule inhibitors as in chromeno[3,4-b]xanthones 4a-i, are important structural features for Aβ aggregation inhibitors. […] The ThT fluorescence data was recorded over 24 h and the obtained results were then plotted against time, as illustrated in Figure 5. Phenol red was used as the reference inhibitor for in vitro Aβ aggregation.
The inhibition of Aβ1-42 aggregation was determined through a ThT-based fluorimetric assay. Initially, the Aβ-peptides (1 mg) were pre-treated with 1,1,1,3,3,3,-hexafluoro-2-propanol (HFIP), kept at room temperature overnight, aliquoted, and dried under vacuum. The Aβ-peptides stock solutions (111 μM) were then prepared in ammonium hydroxide 0.1% (NH4OH) prior to the fluorescence assay. The stock solutions of all tested compounds (400 μM) were prepared in DMSO, while the stock solution of ThT (400 μM) was prepared in distilled water (1 mL). The Aβ aggregation was monitored using a standard 96-well plates, in the Synergy multi-mode reader (BioTek) and setting the excitation and emission wavelengths at 440 and 485 nm, respectively. Samples were prepared by diluting the stock solutions in PBS pH 7.4 to a final Aβ peptides concentration of 10 μM, 20 μM of ThT and 20 μM of the test compound (maximum final DMSO content: 5% v/v), with a final volume of 100 μL. The assays were performed at room temperature. The fluorescence data was recorded over 24 h with 5 s shaking (360 cpm) prior to each reading and then plotted against the time, using a nonlinear regression. Phenol red was used as the reference compound. Each condition was performed in triplicate, and values were averaged. The estimation of the inhibitory potency (%) was carried out by comparing fluorescence values at the plateau.

[3] = Table 1, mean ± SEM, n = 3, each in triplicate, pH 7, 37 °C, read-out: eeAChE [IC50 (μM)]
[4] = Table 3 (dual-target summary), mean ± SEM, n = 3, read-out: eeAChE (IC50 [μM])
[5] = Table 2, 10 μM Aβ, fluorescence at plateau over 24 h, <10 = no inhibition observed

Sequence of AChE (Electrophorus electricus—eeAChE) (O42275 24-633): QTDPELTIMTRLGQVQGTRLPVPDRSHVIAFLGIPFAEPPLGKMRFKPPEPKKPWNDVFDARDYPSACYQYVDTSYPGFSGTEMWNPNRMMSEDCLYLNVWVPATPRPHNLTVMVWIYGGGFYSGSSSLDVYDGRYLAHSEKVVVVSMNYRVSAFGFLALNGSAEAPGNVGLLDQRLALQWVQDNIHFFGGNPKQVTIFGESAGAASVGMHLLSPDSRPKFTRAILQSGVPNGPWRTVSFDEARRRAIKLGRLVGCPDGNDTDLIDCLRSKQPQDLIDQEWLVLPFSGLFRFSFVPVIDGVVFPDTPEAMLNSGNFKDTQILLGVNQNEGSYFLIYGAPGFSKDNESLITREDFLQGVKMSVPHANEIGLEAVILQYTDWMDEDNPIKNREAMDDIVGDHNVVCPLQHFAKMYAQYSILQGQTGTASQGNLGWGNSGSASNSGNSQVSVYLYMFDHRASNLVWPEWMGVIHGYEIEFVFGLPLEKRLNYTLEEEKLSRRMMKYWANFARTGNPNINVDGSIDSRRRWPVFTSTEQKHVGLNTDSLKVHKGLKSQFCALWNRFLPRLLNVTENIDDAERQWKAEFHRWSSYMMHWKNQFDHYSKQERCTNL

## 2,9-Dimethoxy-6H,8H-chromeno[3,4-b]xanthen-8-one [Compound 4g]
[1]; [3]
  IC50: > 20 µM

## 2,11,12-trimethoxy-6H,8H-chromeno[3,4-b]xanthen-8-one [Compound 4h]
[1]; [3]
  IC50: > 20 µM

## 2,11-Dimethoxy-6H,8H-chromeno[3,4-b]xanthen-8-one [Compound 4f]
[1]; [3]
  IC50: 4.8 ± 0.1 µM
[1]; [4]
  IC50: 4.8 ± 0.1 µM
[2]; [5]
  Aβ1-42 Aggregation (% Inhib. at 20 μM): 52%
[2]; Table 3 (dual-target summary)
  Aβ1-42 Aggregation (% Inhib. at 20 μM): 52%

## 2-Methoxy-6H,8H-chromeno[3,4-b]xanthen-8-one [Compound 4e]
[1]; [3]
  IC50: 6.9 ± 0.3 µM
[1]; [4]
  IC50: 6.9 ± 0.3 µM
[2]; [5]
  Aβ1-42 Aggregation (% Inhib. at 20 μM): 61%
[2]; Table 3 (dual-target summary)
  Aβ1-42 Aggregation (% Inhib. at 20 μM): 61%

## C#CCOc1ccccc1/C=C/c1cc(=O)c2ccccc2o1 [Compound 3a, (E)-2-[2-(prop-2-yn-1-yloxy)styryl]-4H-chromen-4-one]
[1]
  IC50: 9.5 ± 0.3 µM
[2]; [5]
  inhibition at 20 µM: < 10%

## C#CCOc1ccccc1/C=C/c1cc(=O)c2ccc(OC)cc2o1 [Compound 3b, (E)-7-methoxy-2-[2-(prop-2-yn-1-yloxy)styryl]-4H-chromen-4-one]
[1]; [3]
  IC50: > 20 µM
[2]; [5]
  inhibition at 20 µM: < 10%

## C#CCOc1ccccc1/C=C/c1cc(=O)c2c(OC)cccc2o1 [Compound 3c, (E)-5-methoxy-2-[2-(prop-2-yn-1-yloxy)styryl]-4H-chromen-4-one]
[1]; [3]
  IC50: > 20 µM

## C#CCOc1ccccc1/C=C/c1cc(=O)c2ccc(OC)c(OC)c2o1 [Compound 3d, (E)-7,8-dimethoxy-2-[2-(prop-2-yn-1-yloxy)styryl]-4H-chromen-4-one]
[1]
  IC50: 2.4 ± 0.1 µM
[2]; [5]
  inhibition at 20 µM: < 10%

## C#CCOc1cc(OC)ccc1/C=C/c1cc(=O)c2ccccc2o1 [Compound 3e, (E)-2-[4-methoxy-2-(prop-2-yn-1-yloxy)styryl]-4H-chromen-4-one]
[1]; [3]
  IC50: > 20 µM

## C#CCOc1cc(OC)ccc1/C=C/c1cc(=O)c2ccc(OC)cc2o1 [Compound 3f, (E)-7-methoxy-2-[4-methoxy-2-(prop-2-yn-1-yloxy)styryl]-4H-chromen-4-one]
[1]; [3]
  IC50: > 20 µM
[2]; [5]
  inhibition at 20 µM: 48%

## C#CCOc1ccc(Br)cc1/C=C/c1cc(=O)c2ccccc2o1 [Compound 3i]
[1]; [3]
  IC50: > 20 µM

## O=c1c2ccccc2oc2cc3c(cc12)COc1ccccc1-3 [Compound 4a, 6H,8H-Chromeno[3,4-b]xanthen-8-one]
[1]
  IC50: 2.1 ± 0.2 µM
[2]; [5]
  inhibition at 20 µM: < 10%

## COc1ccc2c(=O)c3cc4c(cc3oc2c1)-c1ccccc1OC4 [Compound 4b]
[1]; [4]
  IC50: 3.9 ± 0.1 µM
[2]; [5]
  inhibition at 20 µM: 70%
[2]; Table 3 (dual-target summary)
  inhibition at 20 µM: 66 to 70%

## COc1cccc2oc3cc4c(cc3c(=O)c12)COc1ccccc1-4 [Compound 4c, 9-Methoxy-6H,8H-chromeno[3,4-b]xanthen-8-one]
[1]; [3]
  IC50: > 20 µM

## COc1ccc2c(=O)c3cc4c(cc3oc2c1OC)-c1ccccc1OC4 [Compound 4d, 11,12-Dimethoxy-6H,8H-chromeno[3,4-b]xanthen-8-one]
[1]; [3]
  IC50: > 20 µM

## O=c1c2ccccc2oc2cc3c(cc12)COc1ccc(Br)cc1-3 [Compound 4i, 2-bromo-6H,8H-chromeno[3,4-b]xanthen-8-one]
[1]; [3]
  IC50: > 20 µM

## N#CCOc1ccccc1/C=C/c1cc(=O)c2ccccc2o1 [Compound 6, (E)-2-{2-[2-(4-oxo-4H-chromen-2-yl)vinyl]phenoxy}acetonitrile]
[1]; [3]
  IC50: > 20 µM

## C#CCN(CC#C)c1ccccc1/C=C/c1cc(=O)c2ccccc2o1 [Compound 8, (E)-2-{2-[di(prop-2-yn-1-yl)amino]styryl}-4H-chromen-4-one]
[1]; [4]
  IC50: 8.7 ± 0.2 µM
[2]; [5]
  inhibition at 20 µM: 18%
[2]; Table 3 (dual-target summary)
  inhibition at 20 µM: 18%

## Cc1ccc(C#CCOc2ccccc2/C=C/c2cc(=O)c3ccccc3o2)cc1 [Compound 10, (E)-2-(2-{[3-(4-methylphenyl)prop-2-yn-1-yl]oxy}styryl)-4H-chromen-4-one]
[1]; [4]
  IC50: 2.9 ± 0.1 µM
[2]; [5]
  inhibition at 20 µM: 66%
[2]; Table 3 (dual-target summary)
  inhibition at 20 µM: 66 to 70%

## O=S1(=O)OC(c2ccc(O)cc2)(c2ccc(O)cc2)c2ccccc21 [Phenol Red, Phenol red, reference compound]
[2]; [5]
  inhibition at 20 µM: 20%

## (E)-7,8-dimethoxy-2-[4-methoxy-2-(prop-2-yn-1-yloxy)styryl]chroman-4-one [Compound 3h]
[1]; [3]
  IC50: > 20 µM

## (E)-8-methoxy-3-[4-methoxy-2-(prop-2-yn-1-yloxy]styryl)naphthalen-1(4H)-one [Compound 3g]
[1]; [3]
  IC50: > 20 µM
